Assay results taken from patent US8129371B2, “Thienopyrimidine and pyrazolopyrimidine compounds and their use as mTOR kinase and PI3 kinase inhibitors” (Wyeth LLC, priority 2007, dated 2012).
Where two headings read alike, the source gives them in different places.

Legend:
prostate line LNCap = test: In vitro cell culture growth assay (MTS), LNCap; assay type: cell-based; details: Homo sapiens, LNCaP, 72 h, LNCap cells, three days after drug treatment
How it was run: (§1)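 Cells were plated and, one day later, treated with inhibitors. Three days after treatment, viable cell density was measured by MTS dye conversion, read as absorbance at 490 nm. Effects are expressed as percent of control growth versus vehicle-treated cells on the same plate.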

PI3K [1] = target: T1, PI3K (Homo sapiens, UniProt P42336); test: Fluorescence polarization assay for PI3K; assay type: biochemical; details: read-out: PI3 Kinase α IC50
T1 construct: PI3 Kinase α IC50; other: PI3 Kinase α; other: PI3 Kinase α isoform, fluorescence polarization
How it was run: (§2)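 PI3K was preincubated with compound (final DMSO 1%), and the reaction was started with PIP2/ATP substrate and run 30–60 min. It was stopped with a detector mix giving 10 nM red probe and 70 nM GST-GRP.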

PI3K [2] = target: T2, PI3K (Homo sapiens, UniProt P48736); test: Fluorescence polarization assay for PI3K; assay type: biochemical; details: read-out: PI3 Kinase γ IC50
T2 construct: PI3 Kinase γ IC50; other: PI3 Kinase γ; other: PI3 Kinase γ isoform, fluorescence polarization
How it was run: as §2

breast line MDA468 = test: In vitro cell culture growth assay (MTS), MDA468; assay type: cell-based; details: Homo sapiens, 72 h, MDA468 cells, three days after drug treatment
How it was run: as §1

Human mTOR (FLAG-TOR) = target: T3, Human mTOR (FLAG-TOR) (Homo sapiens, UniProt P42345); test: Human mTOR kinase assay with purified enzyme, DELFIA format; assay type: biochemical
T3 construct: FLAG
How it was run: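 Purified FLAG-mTOR in HEPES pH 7.4 buffer with 10 mM MnCl2 was preincubated with inhibitor and reacted 2 h at room temperature with His6-S6K substrate, then stopped with EDTA/EGTA. Phospho-T389 S6K detected by DELFIA with Eu-labelled antibody (40 ng/mL) after plate capture; inhibition computed from signal.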

[3] = PI3 Kinase α isoform, fluorescence polarization
[4] = PI3 Kinase γ isoform, fluorescence polarization
[5] = purified human mTOR enzyme, DELFIA format

T2 sequence (P48736 whole entry, canonical isoform): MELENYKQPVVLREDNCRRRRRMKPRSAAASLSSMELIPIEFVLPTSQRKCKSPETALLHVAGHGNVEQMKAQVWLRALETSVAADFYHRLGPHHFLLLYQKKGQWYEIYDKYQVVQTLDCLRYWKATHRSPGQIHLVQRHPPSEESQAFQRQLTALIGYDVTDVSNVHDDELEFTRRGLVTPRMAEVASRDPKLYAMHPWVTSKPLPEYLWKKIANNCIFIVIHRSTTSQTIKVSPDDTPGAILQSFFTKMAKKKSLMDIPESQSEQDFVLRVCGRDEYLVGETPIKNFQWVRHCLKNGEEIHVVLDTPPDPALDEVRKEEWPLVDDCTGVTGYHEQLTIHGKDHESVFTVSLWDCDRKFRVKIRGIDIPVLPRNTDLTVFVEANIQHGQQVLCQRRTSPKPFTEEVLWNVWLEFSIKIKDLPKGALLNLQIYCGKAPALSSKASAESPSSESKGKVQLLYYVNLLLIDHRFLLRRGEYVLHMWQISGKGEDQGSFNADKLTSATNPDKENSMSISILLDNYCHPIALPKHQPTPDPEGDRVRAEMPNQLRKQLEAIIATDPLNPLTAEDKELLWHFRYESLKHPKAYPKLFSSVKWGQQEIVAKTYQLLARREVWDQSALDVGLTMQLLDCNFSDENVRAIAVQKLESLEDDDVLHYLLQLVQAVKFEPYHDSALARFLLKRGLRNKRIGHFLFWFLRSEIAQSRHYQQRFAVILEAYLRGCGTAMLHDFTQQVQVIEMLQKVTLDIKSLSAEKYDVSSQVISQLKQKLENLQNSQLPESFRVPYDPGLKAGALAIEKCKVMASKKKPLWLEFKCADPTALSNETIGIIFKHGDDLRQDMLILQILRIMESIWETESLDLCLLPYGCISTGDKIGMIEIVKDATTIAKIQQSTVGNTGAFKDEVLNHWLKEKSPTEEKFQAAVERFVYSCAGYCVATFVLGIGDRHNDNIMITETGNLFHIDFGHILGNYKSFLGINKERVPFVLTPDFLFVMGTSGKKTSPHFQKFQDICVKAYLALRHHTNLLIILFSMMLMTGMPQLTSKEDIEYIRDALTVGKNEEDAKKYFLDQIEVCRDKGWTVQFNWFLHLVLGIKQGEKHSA
T1 sequence (P42336 whole entry, canonical isoform): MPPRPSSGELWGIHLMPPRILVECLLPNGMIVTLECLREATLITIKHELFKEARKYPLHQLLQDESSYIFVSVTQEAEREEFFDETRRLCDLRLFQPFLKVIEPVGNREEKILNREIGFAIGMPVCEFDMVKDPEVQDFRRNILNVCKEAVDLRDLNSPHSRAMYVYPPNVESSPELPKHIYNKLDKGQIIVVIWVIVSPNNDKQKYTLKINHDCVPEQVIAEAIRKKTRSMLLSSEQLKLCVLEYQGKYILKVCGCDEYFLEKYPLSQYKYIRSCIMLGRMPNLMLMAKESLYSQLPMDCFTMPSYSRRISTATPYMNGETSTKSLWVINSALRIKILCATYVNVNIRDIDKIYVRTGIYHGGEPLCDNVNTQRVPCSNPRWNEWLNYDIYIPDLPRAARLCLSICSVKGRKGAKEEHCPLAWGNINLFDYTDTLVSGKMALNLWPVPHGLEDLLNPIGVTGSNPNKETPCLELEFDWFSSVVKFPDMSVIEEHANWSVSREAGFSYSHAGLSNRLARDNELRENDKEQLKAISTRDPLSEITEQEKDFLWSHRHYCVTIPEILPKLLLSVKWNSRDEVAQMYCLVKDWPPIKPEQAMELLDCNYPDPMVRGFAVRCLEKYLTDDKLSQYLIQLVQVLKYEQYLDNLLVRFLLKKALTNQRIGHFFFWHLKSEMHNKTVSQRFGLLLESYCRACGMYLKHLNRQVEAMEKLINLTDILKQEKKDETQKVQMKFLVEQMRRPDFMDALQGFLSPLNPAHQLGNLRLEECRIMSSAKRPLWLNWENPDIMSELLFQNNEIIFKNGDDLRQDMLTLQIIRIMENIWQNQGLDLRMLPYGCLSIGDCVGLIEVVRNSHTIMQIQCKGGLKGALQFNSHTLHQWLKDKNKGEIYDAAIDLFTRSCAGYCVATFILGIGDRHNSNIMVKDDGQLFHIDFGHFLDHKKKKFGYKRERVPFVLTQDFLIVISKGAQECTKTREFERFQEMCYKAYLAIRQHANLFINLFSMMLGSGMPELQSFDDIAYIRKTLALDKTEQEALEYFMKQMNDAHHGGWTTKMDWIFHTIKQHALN

IC50 (prostate line LNCap) [µM]	IC50 (PI3K [1]; [3]) [µM]	IC50 (PI3K [2]; [4]) [µM]	IC50 (Human mTOR (FLAG-TOR); [5]) [µM]	IC50 (PI3K [1]; PI3 Kinase α) [µM]	IC50 (PI3K [2]; PI3 Kinase γ) [µM]	IC50 (Human mTOR (FLAG-TOR)) [µM]	Structure (SMILES)	IC50 (breast line MDA468) [µM]
1.85	6.2	> 10	0.0086	–	–	–	COC(=O)Nc1ccc(-c2nc(N3CC4CCC(C3)O4)c3sccc3n2)cc1 [Example 416, methyl {4-[4-(8-oxa-3-azabicyclo[3.2.1]oct-3-yl)thieno[3,2-d]pyrimidin-2-yl]phenyl}carbamate]	9.1
0.004	–	–	–	1.75	> 10	0.00093	O=C(Nc1ccc(-c2nc(N3CC4CCC(C3)O4)c3cnn(C4CCN(Cc5cccnc5)CC4)c3n2)cc1)OCCO [Example 210, 2-hydroxyethyl (4-{4-(8-oxa-3-azabicyclo[3.2.1]oct-3-yl)-1-[1-(pyridin-3-ylmethyl)piperidin-4-yl]-1H-pyrazolo[3,4-d]pyrimidin-6-yl}phenyl)carbamate]	0.11
0.001	–	–	–	0.41	4.67	0.00233	CN1CCN(c2ccc(NC(=O)Nc3ccc(-c4nc(N5C[C@@H]6C[C@H]5CO6)c5cnn(CC(F)(F)F)c5n4)cc3)cc2)CC1 [Example 295, 1-[4-(4-methylpiperazin-1-yl)phenyl]-3-(4-{4-[(1S,4S)-2-oxa-5-azabicyclo[2.2.1]hept-5-yl]-1-(2,2,2-trifluoroethyl)-1H-pyrazolo[3,4-d]pyrimidin-6-yl}phenyl)urea]	0.013
0.185	0.101	0.919	0.0042	–	–	–	Cn1ncc2c(N3CC4COC(C3)O4)nc(-c3ccc(NC(=O)Nc4cccnc4)cc3)nc21 (stereo not drawn) [Example 391, 1-{4-[4-(6,8-dioxa-3-azabicyclo[3.2.1]oct-3-yl)-1-methyl-1H-pyrazolo[3,4-d]pyrimidin-6-yl]phenyl}-3-pyridin-3-ylurea]	0.58
0.027	0.119	2.36	0.00028	–	–	–	O=C(Nc1ccc(-c2nc(N3CC4CCC(C3)O4)c3sccc3n2)cc1)Nc1cccnc1 [Example 412, 1-{4-[4-(8-oxa-3-azabicyclo[3.2.1]oct-3-yl)thieno[3,2-d]pyrimidin-2-yl]phenyl}-3-pyridin-3-ylurea]	0.072
0.35	–	–	–	0.836	0.668	0.052	CCn1ncc2c(N3CC4CCC(C3)O4)nc(-c3ccc(NC(=O)NCCN(C)C)cc3)nc21 [Example 175, 1-[2-(dimethylamino)ethyl]-3-{4-[1-ethyl-4-(8-oxa-3-azabicyclo[3.2.1]oct-3-yl)-1H-pyrazolo[3,4-d]pyrimidin-6-yl]phenyl}urea]	1.25
< 0.001	1.22	10.4	0.00125	–	–	–	O=C(Nc1ccc(-c2nc(N3C[C@@H]4C[C@H]3CO4)c3cnn(CC(F)(F)F)c3n2)cc1)Nc1ccc(N2CCOCC2)cc1 [Example 298, 1-(4-morpholin-4-ylphenyl)-3-(4-{4-[(1S,4S)-2-oxa-5-azabicyclo[2.2.1]hept-5-yl]-1-(2,2,2-trifluoroethyl)-1H-pyrazolo[3,4-d]pyrimidin-6-yl}phenyl)urea]	0.001
0.2	–	–	–	4.48	9.5	0.0045	COC(=O)Nc1ccc(-c2nc(N3CC4CCC(C3)O4)c3cnn(C4CCN(C(=O)OC(C)C)CC4)c3n2)cc1 [Example 74, isopropyl 4-[6-{4-[(methoxycarbonyl)amino]phenyl}-4-(8-oxa-3-azabicyclo[3.2.1]oct-3-yl)-1H-pyrazolo[3,4-d]pyrimidin-1-yl]piperidine-1-carboxylate]	6
0.006	–	–	–	0.419	> 10	0.0015	CCn1ncc2c(N3CC4CCC(C3)O4)nc(-c3ccc(NC(=O)Nc4ccc(N(C)C)nc4)cc3)nc21 [Example 284, 1-[6-(dimethylamino)pyridin-3-yl]-3-{4-[1-ethyl-4-(8-oxa-3-azabicyclo[3.2.1]oct-3-yl)-1H-pyrazolo[3,4-d]pyrimidin-6-yl]phenyl}urea]	0.08
0.007	0.238	1.85	0.000405	–	–	–	CN1CCN(C2CCC(n3ncc4c(N5CC6CCC(C5)O6)nc(-c5ccc(NC(=O)Nc6cccnc6)cc5)nc43)CC2)CC1 (stereo not drawn) [Example 330, 1-(4-{1-[4-(4-methylpiperazin-1-yl)cyclohexyl]-4-(8-oxa-3-azabicyclo[3.2.1]oct-3-yl)-1H-pyrazolo[3,4-d]pyrimidin-6-yl}phenyl)-3-pyridin-3-ylurea]	0.06
0.02	–	–	–	0.282	9.5	0.00034	CC(C)(C)n1ncc2c(N3CC4CCC(C3)O4)nc(-c3ccc(NC(=O)NCCO)cc3)nc21 [Example 97]	0.18
0.17	3.81	> 10	0.0104	–	–	–	COCC(COC)n1ncc2c(N3CC4CCC(C3)O4)nc(-c3ccc(NC(=O)NC4CC4)cc3)nc21 [Example 321, 1-cyclopropyl-3-(4-{1-[2-methoxy-1-(methoxymethyl)ethyl]-4-(8-oxa-3-azabicyclo[3.2.1]oct-3-yl)-1H-pyrazolo[3,4-d]pyrimidin-6-yl}phenyl)urea]	1.05
1.2	0.246	9.18	0.051	–	–	–	Nc1ncc(-c2nc(N3CC4CCC(C3)O4)c3sccc3n2)cn1 [Example 421, 5-[4-(8-oxa-3-azabicyclo[3.2.1]oct-3-yl)thieno[3,2-d]pyrimidin-2-yl]pyrimidin-2-amine]	3.9
< 0.0008	–	–	–	0.326	3.48	0.00025	O=C(Nc1ccc(-c2nc(N3CC4CCC(C3)O4)c3cnn(C4CCN(Cc5cccnc5)CC4)c3n2)cc1)Nc1cccnc1 [Example 18, 1-(4-{4-(8-oxa-3-azabicyclo[3.2.1]oct-3-yl)-1-[1-(pyridin-3-ylmethyl)piperidin-4-yl]-1H-pyrazolo[3,4-d]pyrimidin-6-yl}phenyl)-3-pyridin-3-ylurea]	< 0.0008
0.002	–	–	–	12	> 10	0.00022	O=C(Nc1ccc(-c2nc(N3CC4CCC(C3)O4)c3cnn(C4CCC5(CC4)OCCO5)c3n2)cc1)NC1CC1 [Example 126, 1-cyclopropyl-3-{4-[1-(1,4-dioxaspiro[4.5]dec-8-yl)-4-(8-oxa-3-azabicyclo[3.2.1]oct-3-yl)-1H-pyrazolo[3,4-d]pyrimidin-6-yl]phenyl}urea]	0.058
0.055	–	–	–	1.44	8.21	0.006	CCn1ncc2c(N3CC4CCC(C3)O4)nc(-c3ccc(NC(=O)Nc4ccc(N5CCCC5)cc4)cc3)nc21 [Example 280, 1-{4-[1-ethyl-4-(8-oxa-3-azabicyclo[3.2.1]oct-3-yl)-1H-pyrazolo[3,4-d]pyrimidin-6-yl]phenyl}-3-(4-pyrrolidin-1-ylphenyl)urea]	0.12
1.05	–	–	–	3.32	> 10	0.028	COC(=O)Nc1ccc(-c2nc(N3CC4CCC(C3)O4)c3cnn(C)c3n2)cc1 [Example 60, methyl {4-[1-methyl-4-(8-oxa-3-azabicyclo[3.2.1]oct-3-yl)-1H-pyrazolo[3,4-d]pyrimidin-6-yl]phenyl}carbamate]	6.8
0.001	–	–	–	4.58	> 10	0.00026	CCNC(=O)Nc1ccc(-c2nc(N3CC4CCC(C3)O4)c3cnn(C4CCC5(CC4)OCCO5)c3n2)cc1 [Example 123, 1-{4-[1-(1,4-dioxaspiro[4.5]dec-8-yl)-4-(8-oxa-3-azabicyclo[3.2.1]oct-3-yl)-1H-pyrazolo[3,4-d]pyrimidin-6-yl]phenyl}-3-ethylurea]	0.009
1.7	–	–	–	6.69	> 10	0.029	CCn1ncc2c(N3CC4CCC(C3)O4)nc(-c3ccc4[nH]ccc4c3)nc21 [Example 76, 1-ethyl-6-(1H-indol-5-yl)-4-(8-oxa-3-azabicyclo[3.2.1]oct-3-yl)-1H-pyrazolo[3,4-d]pyrimidine]	7
0.013	–	–	–	0.05	1.76	0.000265	O=C(Nc1ccc(CO)cc1)Nc1ccc(-c2nc(N3CC4CCC(C3)O4)c3cnn(CCO)c3n2)cc1 [Example 201, 1-{4-[1-(2-hydroxyethyl)-4-(8-oxa-3-azabicyclo[3.2.1]oct-3-yl)-1H-pyrazolo[3,4-d]pyrimidin-6-yl]phenyl}-3-[4-(hydroxymethyl)phenyl]urea]	0.012
0.1	–	–	–	1.53	11	0.00017	CC(C)OC(=O)N1CCC(n2ncc3c(N4CC5CCC(C4)O5)nc(-c4ccc(NC(=O)NCCO)cc4)nc32)CC1 [Example 69, isopropyl 4-[6-(4-{[(2-hydroxyethyl)carbamoyl]amino}phenyl)-4-(8-oxa-3-azabicyclo[3.2.1]oct-3-yl)-1H-pyrazolo[3,4-d]pyrimidin-1-yl]piperidine-1-carboxylate]	0.195
